According to US10160791B2, “Protamine in treatment of neuronal injuries” (UNIVERSITY OF HELSINKI, priority 2013, dated 2018):
“Also recorded” adds a separate entry of the source.

Key:
[1] = system: wild type RPTPσ; assay: RPTPσ binding assay (ELISA, biotinylated aggrecan), wild type RPTPσ; design: species or system mouse; conditions: FIG. 4
Excerpt: (§1) Protamine (salmon) and protamine sulphate (herring) were from Sigma, protamine sulphate (salmon) was from Leo Pharma. Bovine aggrecan was from Sigma. The DNA sequence (the template cDNA clone MGC:63375 IMAGE:6834684) of the CSPG-binding domain of mouse RPTPσ was used for Fc-tagged RPTPσ protein production. Peptides derived from the protamine sequence were custom synthesised by CASLO ApS (Denmark).
(§2) The Fc-tagged extracellular domain of RPTPσ was immobilized on protein G-coated plates. Binding of biotinylated aggrecan to RPTPσ was quantified via colorimetric assay using streptavidin-conjugated horse radish peroxidise. Experiments were done by using protein G coated 96 well plates (Pierce, prod. #15133). Wells were first washed briefly with PBS, 0.05% Tween-20 solution. RPTPσ wild type and mutant FC-fusion proteins were diluted into 2 μg/ml solution in buffer containing PBS, 1% BSA, 0.05% Tween-20. 150 μl of protein solution was added into the wells and plates were left for shaking at +RT for 1 hour. […] Detection of bound Streptavidin-Peroxidase Polymer was done by adding 200 μl of OPD (o-Phenylenediamine dihydrochloride, SIGMA P9187) substrate into the wells and was measured by reading the absorbance at 450 nm (A450).
(§3) Aggrecan binding to RPTPσ was assessed via ELISA using Fc-tagged RPTPσ and biotinylated aggrecan. Binding was quantified using streptavidin-bound horse radish peroxidase. […]

[2] = system: Mutant RPTPσ, with a defective CSPG-binding site; assay: RPTPσ binding assay (ELISA, biotinylated aggrecan), mutant RPTPσ; design: species or system mouse; conditions: negative control, biotinylated aggrecan 5 μg/ml, protamine 0-5 μg/ml
Excerpt: as §1, §2, §3

[3] = system: embryonic rat cortical neurons; assay: Neurite outgrowth assay on aggrecan-coated substrate, cortical neurons; assay type: cell-based; conditions: E17 rat cortical neurons, plates precoated with aggrecan 10 μg/ml, cultured 1.5-3.5 days
Experimental: (§4) Cortical or hippocampal neurons from E17 rat embryos were plated at 50,000 cells/cm2 on plastic cell culture plates. Plates were precoated with aggrecan or IgG (10 μg/ml). Protamine, or derived peptides, were precoated together with aggrecan or added to culture medium when plating neurons. Cells were cultured for 1.5-3.5 days and after that images of cell cultures were taken using phase contrast microscope with ×20 objective. Neurite length was quantified using ImagePro software. Mouse neurons were immunostained with anti-tubulin βIII antibodies and imaged using fluorescent microscope.

[4] = system: embryonic rat hippocampal neurons; assay: Neurite outgrowth assay on aggrecan-coated substrate, hippocampal neurons; assay type: cell-based; conditions: E17 rat hippocampal neurons, plates precoated with aggrecan 10 μg/ml
Experimental: as §4

[5] = system: mice with spinal cord hemisection; assay: Cylinder test of limb use asymmetry after spinal cord hemisection; assay type: in vivo, mouse; conditions: intracerebroventricular injection, compared to vehicle
Experimental: (§5) Animals were anaesthetized with a intraperitoneal mixture of Ketaminol (2 mg/20 g body weight, Intervet) and Rompun (0.25 mg/20 g body weight, Bayer). After laminectomy at C5 vertebral level, the dura was carefully removed. The right cervical spinal hemicord was transected with a 25G syringe needle from midline dorsal vessel to the lateral side. Bleeding was controlled with haemostatic gelatin sponge. Muscle and skin were sutured with 6-0 monocryl. 30 min before surgery and during following 3 days mice were treated with antibiotic Borgal (30 mg/kg, Intervet). Body weight and bladder expression were checked for 7 days, and animal received Rimadil (5 mg/kg, Pfizer) and Rapidexon (0.2 mg/kg, Evrovet) to control pain and inflammatory swelling until they stop to lose body weight.
Cylinder Test of Limb Use Asymmetry. Mouse was placed to glass cylinder 10 cm in diameter and 14 cm high. Mirror was position at the angle behind of cylinder for better observation. […] The number of rearing in which mouse used right (impaired), left or both limbs for support against the wall were measured. Paw preference were calculated as ratio of total number of left limb use (left+both) to total number of right (impaired) limb use (right+both).
(§6) Statistic. Data obtained from Vertical screen test were analyzed by one-way ANOVA followed by post-hoc Newman-Keuls test for detection of group differences. […]

[6] = system: mice with spinal cord hemisection; assay: Vertical screen test after spinal cord hemisection; assay type: in vivo, mouse; conditions: intracerebroventricular injection, compared to vehicle
Experimental: as §5
Vertical screen (VS). The mouse was placed on a very brink of horizontal wire screen (25×22 cm, diameter of wires 2 mm spaced at 1 cm) faced to edge. Immediately after that the screen was turned vertically to place mouse to upside down position at the lower edge. The time that animal was needed to climb to the upper edge were measured during 1 min. This test was repeated every second week starting from 1st week after surgery.
as §6

Sequence: MPRRRRSSSRPVRRRRRPRVSRRRRRRGGRRRR (Genus/Species name of salmon disclosed by SEQ ID NO 1 is not known) [Protamine, small arginine-rich nuclear protein, from Sigma]
- amount of aggrecan binding to RPTPσ (in words) [1]: increases the amount of aggrecan binding to RPTPσ
- aggrecan binding to mutant RPTPσ [2]: not affected
- neuronal attachment and neurite growth on the aggrecan-coated substrate [3]: overcomes the inhibitory action of aggrecan, promoting neuronal attachment and neurite growth; also recorded: overcame this inhibitory action of aggrecan, promoting neuronal attachment and neurite growth; also recorded: active as both the free protein and as sulphate salt

Sequence: SRPVRRRRRPRVS [Peptide 3]
- neuronal attachment and neurite growth on the aggrecan-coated substrate [4]: overcomes the inhibitory action of aggrecan, promoting neuronal attachment and neurite growth

Sequence: SRPVRRRRRPRVSRRRRRRGGRRRR [Peptide 2]
- neuronal attachment and neurite growth on the aggrecan-coated substrate [3]: overcome the inhibitory action of aggrecan, promoting neuronal attachment and neurite growth; also recorded: displayed activity

Sequence: VSRRRRRRGGRRRR [Peptide 12]
- limb usage on the affected side (cylinder test) [5]: improves functional recovery
- limb usage on the affected side (cylinder test) ([5]; listed as protamine peptide 12): enhances limb usage on the affected side compared to the vehicle
- time used in the vertical climbing test (vertical screen) [6]: improves functional recovery
- time used in the vertical climbing test (vertical screen) ([6]; listed as protamine peptide 12): becomes shortened compared to injection of the vehicle only
- neuronal attachment and neurite growth on the aggrecan-coated substrate [3]: overcome the inhibitory action of aggrecan, promoting neuronal attachment and neurite growth; also recorded: displayed activity
